In patent US20250302929A1, “TUMOR NEOANTIGENIC PEPTIDES” (INSTITUT CURIE, priority 2021, published 2025):
“Also recorded” adds a separate entry of the source.

Columns and labels:
[1] = system: CD8+ T cells from HLA-A2+ healthy donors; assay: Priming of naive CTLs, in vitro immunogenicity assay, tetramer staining; assay type: cell-based, human; details: for expansion of specific CD8+ T cells (tetramer positive): one donor, versus co-culture without peptides; for specific CD8+ T expansions (immunogenicity): total of 6 donors, FIG. 11A
Experimental: Priming of naïve CTLs. PBMCs were obtained by Ficoll gradient separation from HLA-A2+ healthy blood donors. CD14+, CD4+ and CD8+ cells were purified by positive selection using magnetic beads (Miltenyi Biotec). While CD4+ and CD8+ T cells were cryopreserved until the experiment day, CD14+ fraction was cultured in the presence of IL-4 (50 ng/ml) and GM-CSF (10 ng/mL) at 10^6 cells/mL during 5 days to obtain moDCs. After this period of time, the moDCs were maturated with LPS and incubated with synthetic ER-derived peptides at a final concentration of 1 μg/mL for 2 hours. Finally, peptide-loaded moDCs were co-cultured with autologous CD4+ and CD8+ T cells in culture medium supplemented with IL-2 (10U/ml) and IL-7 (100 ng/ml). The ER-derived peptide stimulation of specific CD8+ CTL populations was assessed by MHC-I tetramer staining by flow cytometry using a combination of two-color tetramer for each peptide.
(§1) Tetramer Staining. Cells were resuspended in PBS, stained with Live/Dead Aqua-405 nm (ThermoFisher) during 20 minutes at 4° C. and washed once. After that, cells were resuspended in PBS-1% BSA containing the mix of SA-coupled tetramers and incubated in the dark at room temperature during 20 minutes. Without further washing, surface antibodies were added in PBS-1% BSA and cells were incubated 20 minutes in the dark at 4° C. Surface antibodies were a combination of anti-CD3-BV650+ anti-CD8-PECy7 in combination with anti-CCR7-AF700+ anti-CD45RA-BUV395 when required. Finally, cells were washed twice and resuspended in FACS buffer for flow cytometry analysis.
The following step after binding validation to HLA-A2 allele, was to test the immunogenicity of predicted peptides. Priming assays were thus performed to test the ability of identified peptides to expand specific cytotoxic T cells. PBMCs from HLA-A2+ healthy donors were used to generate monocyte derived-DCs (moDCs). After loading the moDCs with a mix of synthetic peptides, autologous co-culture was performed with CD4+ and CD8+ T cells. Finally, the expansion of specific CD8+ T cells was analysed by flow cytometry using two-colours tetramer staining. As a control of specific expansion, the co-culture was performed in the absence of peptides.

[2] = system: CD8+ T cells from tumor, juxta tumor, lymph nodes and blood of LUAD patients; assay: Tetramer staining of TILs and CD8+ T cells from LUAD patient samples; assay type: cell-based, human; details: TILs from LUAD patients expanded with peptide mix + IL-2 or IL-2 only
Experimental: In experiments addressed to evaluate the presence of specific CD8+ T cells, the tetramerization step was performed by incubating the monomers with different combinations of fluorescent streptavidin (PE, APC, PE-Cy5, PE-CF594, BV421, BV711 and FITC).
as §1, with “analysis. […]” for “analysis.”
Tumor infiltrating lymphocytes (TILs) cultures. […] Cells were feed/split as necessary during 15-20 days and cryopreserve or analyzed for tetramer staining.
In a first set of experiments tumor infiltrating lymphocytes (TILs) expanded with a mix of TE-derived peptides and Il-2, or only with Il-2, were analyzed by tetramer staining. […]
In a second cohort of 5 primary, untreated, LUAD tumor, juxta-tumor, tumor-draining lymph node and blood samples from LUAD cancer HLA-A2+ patients were analyzed. […]

What does the source list for AILPKANTV?
expansion of specific CD8+ T cells (tetramer positive) [1]: expand specific CD8+ T cells; specific CD8+ T expansions (immunogenicity) [1]: specific CD8+ T expansions

How did the “specific CD8+ T expansions (immunogenicity)” value [1] turn out when AMDGKELSL was run?
The value was “specific CD8+ T expansions”.

For FLGTRVTRV, which “specific CD8+ T expansions (immunogenicity)” value [1] is on record?
The value was “specific CD8+ T expansions”.

FLIVAEILI was tested. Which “expansion of specific CD8+ T cells (tetramer positive)” value (“expansion of specific CD8+ T cells” for short) [1] did it give?
The value was “expand specific CD8+ T cells”.

GLLNISHTA was tested. Which “specific CD8+ T expansions (immunogenicity)” value [1] did it give?
Its value is “specific CD8+ T expansions”.

For GLPSHVELA, which “tetramer positive CD8+ T cells in TILs” value [2] is on record?
The value was “TILs recognizing”.

And the “specific CD8+ T expansions (immunogenicity)” value [1]?
Its value is “specific CD8+ T expansions; also recorded: immunogenic”.

Which “specific CD8+ T expansions (immunogenicity)” value [1] does the source give for ILHSLVTGV here?
Its value is “specific CD8+ T expansions”.

ILSGYGPCV was tested. Which “specific CD8+ T expansions (immunogenicity)” value [1] did it give?
The value was “specific CD8+ T expansions”.

With ILTASITSI as the sequence, how does the “specific CD8+ T expansions (immunogenicity)” value [1] read?
The value was “specific CD8+ T expansions”.

LLDRFGYHV was tested. Which “specific CD8+ T expansions (immunogenicity)” value [1] did it give?
Its value is “specific CD8+ T expansions”.

What does the source list for LLGETKVYV?
expansion of specific CD8+ T cells (tetramer positive) [1]: expand specific CD8+ T cells; specific CD8+ T expansions (immunogenicity) [1]: specific CD8+ T expansions

How did the “specific CD8+ T expansions (immunogenicity)” value [1] turn out when LLHLESFLV was run?
The value was “specific CD8+ T expansions”.

LLTSWHLYL was tested. Which “specific CD8+ T expansions (immunogenicity)” value [1] did it give?
The value was “specific CD8+ T expansions”.

Which “specific CD8+ T expansions (immunogenicity)” value [1] does the source give for MLMKTVWQA here?
The value was “specific CD8+ T expansions”.

MLVTWELAL was tested. Which “specific CD8+ T expansions (immunogenicity)” value [1] did it give?
The value was “specific CD8+ T expansions”.

For RLADHLSFC, which “expansion of specific CD8+ T cells” value [1] is on record?
The value was “expand specific CD8+ T cells”.

What about the “specific CD8+ T expansions (immunogenicity)” value [1] of the same sequence?
The value was “specific CD8+ T expansions; also recorded: immunogenic”.

For RLLHLESFL, which “expansion of specific CD8+ T cells” value [1] is on record?
Its value is “expand specific CD8+ T cells”.

And the “specific CD8+ T expansions (immunogenicity)” value [1]?
Its value is “specific CD8+ T expansions”.

How did the “specific CD8+ T expansions (immunogenicity)” value [1] turn out when RQAPGFHHA was run?
The value was “specific CD8+ T expansions”.

With SLMQSGSPV as the sequence, how does the “specific CD8+ T expansions (immunogenicity)” value [1] read?
Its value is “specific CD8+ T expansions”.

How did the “specific CD8+ T expansions (immunogenicity)” value [1] turn out when VLLTNTIWL was run?
The value was “specific CD8+ T expansions”.

How did the “specific CD8+ T expansions (immunogenicity)” value [1] turn out when VLMWTMAHL was run?
The value was “specific CD8+ T expansions”.

With YLPYFLKSL as the sequence, how does the “specific CD8+ T expansions (immunogenicity)” value [1] read?
The value was “specific CD8+ T expansions”.

YLQGLPLPL was tested. Which “specific CD8+ T expansions (immunogenicity)” value [1] did it give?
The value was “specific CD8+ T expansions”.

Which “expansion of specific CD8+ T cells” value [1] does the source give for YLWTTFFPL here?
Its value is “expand specific CD8+ T cells”.

And the “specific CD8+ T expansions (immunogenicity)” value [1]?
Its value is “specific CD8+ T expansions”.
